Data set [1] has as its target T1, Cathepsin E (Homo sapiens) (UniProt P14091).
T1 sequence (whole entry): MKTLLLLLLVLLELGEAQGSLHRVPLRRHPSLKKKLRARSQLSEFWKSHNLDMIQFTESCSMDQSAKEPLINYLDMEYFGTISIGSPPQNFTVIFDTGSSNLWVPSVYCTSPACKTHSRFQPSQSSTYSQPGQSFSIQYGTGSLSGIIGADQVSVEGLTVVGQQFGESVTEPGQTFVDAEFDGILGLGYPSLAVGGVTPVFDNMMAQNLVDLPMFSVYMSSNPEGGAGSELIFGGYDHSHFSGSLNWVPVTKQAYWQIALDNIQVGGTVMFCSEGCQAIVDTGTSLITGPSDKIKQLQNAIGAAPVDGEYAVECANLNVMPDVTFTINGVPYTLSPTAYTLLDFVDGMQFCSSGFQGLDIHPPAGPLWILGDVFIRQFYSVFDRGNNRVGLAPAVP
Briefly: Inhibition of cathepsin E at 100 uM.

Data set [2] can be described thus: Half life in human liver microsome. The class given is ADME. Particulars: liver microsomes. (In general: Liver microsomes are vesicles of endoplasmic reticulum, rich in cytochrome P450 enzymes.)
For another data set, the species on record is Homo sapiens. Description: Inhibition of pepsin at 100 uM.
The next data set addresses T2, Renin (Homo sapiens, UniProt P00797).
T2 sequence (P00797 whole entry): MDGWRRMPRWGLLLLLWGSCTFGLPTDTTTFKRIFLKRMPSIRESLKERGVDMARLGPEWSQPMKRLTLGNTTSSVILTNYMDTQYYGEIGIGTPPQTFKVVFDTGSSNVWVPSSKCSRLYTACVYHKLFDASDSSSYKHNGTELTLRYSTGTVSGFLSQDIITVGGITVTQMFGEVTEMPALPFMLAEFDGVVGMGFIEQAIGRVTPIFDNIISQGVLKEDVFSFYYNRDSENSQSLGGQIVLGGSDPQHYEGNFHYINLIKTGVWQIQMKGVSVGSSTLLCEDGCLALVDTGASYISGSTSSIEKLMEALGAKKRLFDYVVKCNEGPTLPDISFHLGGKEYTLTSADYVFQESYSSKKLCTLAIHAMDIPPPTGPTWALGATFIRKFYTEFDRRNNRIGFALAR
Description: Inhibition of renin.

The target in data set [3] is Cathepsin D (Homo sapiens) (UniProt P07339). Briefly: Inhibition of cathepsin D at 100 uM.
The target of the next data set is Cytochrome P450 3A4 (Homo sapiens, UniProt P08684). Briefly: Inhibition of CYP3A4. The data set is classed as ADME.
Data set [4] in a line: Oral bioavailability in Sprague-Dawley rat. Particulars: in vivo. The data set is classed as ADME, organism-based.
Data set [5] can be described thus: Volume of distribution in Sprague-Dawley rat. The data set is classed as ADME, organism-based. The settings on record: in vivo, read-out: Vdss.
A short description of data set [6]: Plasma clearance in Sprague-Dawley rat. The data set is classed as ADME, organism-based.
Data set [7] is described as follows: Elimination half life in Sprague-Dawley rat. The class given is ADME, organism-based. The settings on record: in vivo.
A short description of data set [8]: Solubility of the compound. The data set is classed as physicochemical.

This note sets out measurements from ChEMBL document CHEMBL1145363, “Discovery of 6-ethyl-2,4-diaminopyrimidine-based small molecule renin inhibitors” (Bioorg Med Chem Lett, 2007).

≈ marks a conversion by molar mass, not a printed value.

Sequence of Cytochrome P450 3A4 (P08684 whole entry): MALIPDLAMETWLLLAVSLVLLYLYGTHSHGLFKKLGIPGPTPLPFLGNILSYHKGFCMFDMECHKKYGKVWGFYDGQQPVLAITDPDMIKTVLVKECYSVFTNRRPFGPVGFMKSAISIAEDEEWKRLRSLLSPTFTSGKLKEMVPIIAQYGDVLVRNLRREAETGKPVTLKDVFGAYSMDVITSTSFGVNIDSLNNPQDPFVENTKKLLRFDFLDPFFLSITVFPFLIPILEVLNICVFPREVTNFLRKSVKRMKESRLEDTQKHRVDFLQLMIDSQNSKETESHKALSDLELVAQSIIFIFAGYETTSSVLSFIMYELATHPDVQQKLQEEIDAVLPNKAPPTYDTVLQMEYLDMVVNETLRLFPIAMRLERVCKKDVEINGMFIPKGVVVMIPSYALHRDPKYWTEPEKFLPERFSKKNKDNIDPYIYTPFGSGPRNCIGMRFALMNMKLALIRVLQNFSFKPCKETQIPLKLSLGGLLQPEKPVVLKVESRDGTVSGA
Sequence of Cathepsin D (Homo sapiens) (P07339 65-162 limits assumed): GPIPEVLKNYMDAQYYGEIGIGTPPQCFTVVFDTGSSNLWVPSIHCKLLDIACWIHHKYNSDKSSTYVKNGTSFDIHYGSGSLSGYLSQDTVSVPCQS
Sequence of Cathepsin D (Homo sapiens) (P07339 169-412 limits assumed): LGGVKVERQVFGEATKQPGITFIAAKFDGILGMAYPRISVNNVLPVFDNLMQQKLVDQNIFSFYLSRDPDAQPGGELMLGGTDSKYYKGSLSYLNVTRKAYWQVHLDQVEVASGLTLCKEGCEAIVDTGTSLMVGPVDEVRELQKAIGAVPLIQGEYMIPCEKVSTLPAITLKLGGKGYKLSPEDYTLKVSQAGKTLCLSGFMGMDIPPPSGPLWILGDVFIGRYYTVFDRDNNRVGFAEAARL

For the compound `CCc1nc(N)nc(N)c1-c1ccc2c(c1)N(CCCC(=O)OC)CCC2`, the inhibition (in data set [1]; in the data set listed under Homo sapiens; in [3]) was 0% in each case. The half-life in [2] is 5 min. At Renin, this compound registered an IC50 of 120 nM.

Compound `CCc1nc(N)nc(N)c1-c1ccc(NCc2ccc(Cl)c(Cl)c2)cc1` displayed an IC50 against Renin of 27000 nM.

`COc1ccccc1COCCCOc1ccc(N2C(=O)CNC[C@@H]2COc2ccc3c(c2)N(CCNC(C)=O)CCC3)cc1` registered a half-inhibitory concentration (IC50) on Renin of 0.5 nM.

As to `CCc1nc(N)nc(N)c1-c1ccc2c(c1)N(CCCCC(=O)OC)CCC2`, the inhibition (in data set [1]; in the data set filed under Homo sapiens; in data set [3]) was 0% each time. This compound showed a half-life in data set [2] of 5 min. Besides, the IC50 came to 12000 nM on Cytochrome P450 3A4 and 91 nM against Renin.

For the compound `CCc1nc(N)nc(N)c1-c1ccc2c(c1)N(CCC(=O)OC)CCC2`, the inhibition (in [1]; in the data set listed under Homo sapiens; in data set [3]) was 0% throughout. The compound also had a half-life in data set [2] of 5 min. Also, the IC50 came to 10000 nM against Cytochrome P450 3A4 and 198 nM against Renin.

With `CCc1nc(N)nc(N)c1-c1ccc(NCc2cc(F)cc(F)c2)cc1`, the 50% inhibitory concentration (IC50) against Renin amounted to 4000 nM.

Compound `COC[C@@H](O)CO[C@@H]1CNC[C@H](OCc2cc(OC)c3ccccc3c2)[C@H]1c1ccc(OCCCOCc2ccccc2OC)cc1` returned an IC50 against Renin of 0.067 nM.

`CCc1nc(N)nc(N)c1-c1ccc2c(c1)N(CCCOC)CCC2` showed a bioavailability in data set [4] of less than 10%. Also, the inhibition (in [1]; in the data set filed under Homo sapiens; in data set [3]) was 0% each time. In addition, the Vd in data set [5] came out at 1.6 L/kg. Moreover, the clearance in [6] turned out to be 36.8 mL/min/kg. Also, the IC50 is 2800 nM at Cytochrome P450 3A4 and 650 nM at Renin. The compound also gave a half-life in data set [7] of 66.6 min. The same compound registered a solubility in data set [8] of 59.3 µg/mL (≈ 174 µM).

As to `CCc1nc(N)nc(N)c1-c1ccc2c(c1)N(CCNC(C)=O)CCC2`, the inhibition (in [1]; in the data set listed under Homo sapiens; in data set [3]) was 0% throughout. In addition, the half-maximal inhibitory concentration (IC50) on Cytochrome P450 3A4 was determined as 8000 nM; on Renin, 178 nM.

A word on the inhibition: it is the share of the control response that was lost under treatment. A higher inhibition goes with a strong effect. Broadly, the half-life is the time in which the quantity being followed falls by half. Read a high half-life as slow loss. As usually defined, the IC50 is the concentration needed to halve the response being measured. Higher therefore signals weaker potency in that assay. A word on the bioavailability: it is dose-corrected exposure relative to a reference, in per cent. The low end stands for poor availability, the high end for good availability. As usually defined, the clearance is the volume of plasma or blood freed of the substance per unit of time. For orientation: solubility means how much of the substance goes into solution per volume.
